{
  "source": "patent US20200360331A1",
  "about": "“COMPOSITIONS COMPRISING 15-HEPE AND/OR 15-HETrE AND METHODS OF TREATING OR PREVENTING CARDIOMETABOLIC DISEASE, METABOLIC SYNDROME, AND/OR RELATED DISEASES” (Afimmune Limited, priority 2019, published 2020)",
  "key": {"NAFLD patients [1]": {"test_system": "NAFLD patients", "experiment": "Phase IIa NAFLD study: alkaline phosphate (ALP)", "format": "in vivo, human", "conditions": "2 g", "method": "The study was planned to include 96 evaluable patients with 32 patients randomized per treatment group.\nClinical Laboratory Safety Tests: Safety tests were performed for hematology, serum biochemistry, coagulation, lipid profile, and urinalysis: Blood and urine samples were taken as per the Study Flow Chart in Table 19 for routine hematology, serum biochemistry, coagulation and urinalysis tests, along with a Lipid Profile. All samples were analyzed in the central laboratory. All subjects were fasted for a minimum of 8 hours prior to blood sampling. […]"}, "NAFLD patients [2]": {"test_system": "NAFLD patients", "experiment": "Phase IIa NAFLD study: hepatic fat by CAP", "format": "in vivo, human", "conditions": "patients diagnosed with NAFLD", "method": "The study was planned to include 96 evaluable patients with 32 patients randomized per treatment group. […] Liver stiffness and CAP: Liver stiffness and CAP were assessed using transient elastography (e.g., FibroScan® 502 Touch model or equivalent). Patients were fasted and scanned at the same time of the day, if possible, for baseline (Week 0) and Visit 10 (Week 16). For this assessment the following conditions were met: patients were lying in dorsal decubitus position with the right arm in maximal abduction behind the head, in a similar position to that used for liver biopsy (LB); the tip of the transducer was placed on the skin between the ribs over the right lobe of the liver (the physician took the measurements with the probe placed in the intercostal space); during the FibroScan® examination the choice of M+ or XL+ probe was determined by the Automatic Probe Selection tool (APS) (If, the APS tool advises to use the “XL+ probe” or “switch” continuously between “M+ and XL+ probe”, only the XL+ probe was used); and the operator, assisted by an ultrasonic time motion image, located a portion of the liver which is free of large vascular structures (the depth of measurement was between 35-75 mm for the XL+ probe and 25-65 mm for the M+ probe and the explored volume will be 3 cm^3). […] The final stiffness and CAP values was recorded as median values of valid measurements."}, "[3]": {"test_system": "EGFR (epidermal growth factor receptor)", "experiment": "Sucrose density gradient analysis in Mv1Lu cells, EGFR", "format": "cell-based, mink", "conditions": "100 μM, 0, 1, 4 and 24 hours", "method": "Sucrose gradient ultracentrifugation and confocal microscopy were used to identify 15-HEPE induced microdomain translocation of TGF-β receptors by sucrose. Sucrose density gradient analysis of TGF-β receptors was conducted in the plasma membranes of Mv1Lu cells (mink lung epithelial cell) treated with 100 μM of 15-HEPE and an equal volume of DMSO (dimethyl sulfoxide) at 37° C. for 0, 1, 4, and 24 hours, and the cell lysates from these treated cells were subjected to sucrose density gradient ultracentrifugation. The sucrose gradient fractions were then analyzed by Western blot analysis using anti-TβR-I (type I TGF-β receptor), anti-TβR-II (type II TGF-β receptor), anti-TβR-III (type III TGF-β receptor, betaglycan), anti-EGFR (epidermal growth factor receptor), and anti-caveolin-1 antibodies. The lipid raft/caveolae, and non-lipid raft microdomain localization of TβR-I, TβR-II, TβR-III, EGFR and caveolin-1 in the plasma membrane of untreated cells or cells treated with 15-HEPE were assessed to determine the effects of 15-HEPE on the membrane microdomain localization of the TGF-β receptors. […]"}, "Alpha-SMA": {"test_system": "Alpha-SMA", "experiment": "UUO study: quantitative RT-PCR of kidney, Alpha-SMA", "format": "in vivo, C57BL/6 mice", "conditions": "UUO mice kidney", "method": "Quantitative RT-PCR: Total ribonucleic acid (RNA) was extracted from kidney samples using RNAiso (Takara Bio, Japan) according to the manufacturer's instructions. One μg of RNA was reverse-transcribed using a reaction mixture containing […] (mM) of magnesium chloride (MgCl2) (F. Hoffmann-La Roche, Switzerland), 40 U RNase inhibitor (Toyobo, Japan), 0.5 mM dNTP (Promega, USA), 6.28 μM random hexamer (Promega), 5× first strand buffer (Promega), 10 mM dithiothreitol (Invitrogen, USA) and 200 U MMLV-RT (Invitrogen) in a final volume of 20 μL. The reaction was carried out for 1 hour at 37° C., followed by 5 minutes at 99° C. Real-time PCR was performed using real-time PCR DICE and TB Green™ Premix Ex Taq™ II (Takara Bio). To calculate the relative […] (mRNA) expression level, the expression of each gene (e.g., α-SMA, TIMP-1, TGF-β and Collagen Type 1) was normalized to that of reference gene 36B4 (gene symbol: Rplp0). Information regarding the PCR-primer sets and the plate layout are described in Tables 1 and 2."}, "[4]": {"test_system": "TGF-β-stimulated intracellular signaling (SMAD2/3 phosphorylation)", "experiment": "TGF-β-stimulated SMAD2/3 phosphorylation in LX2 liver stellate cells", "format": "cell-based, human", "conditions": "0 μM to 100 μM for 24 hours, then 30 min TGF-β stimulation, listed as 15-HEPE"}},
  "note": "Entries after “also recorded” stand apart in the source; their conditions may differ.",
  "data": [
    {"smiles": "CC/C=C\\CC(O)/C=C/C=C\\C/C=C\\C/C=C\\CCCC(=O)O", "note": "(stereo not drawn) [DS102, 15-hydroxy-eicosa-5Z,8Z,11Z,13E,17Z-pentaenoic acid]", "values": [
      {"measurement": "alkaline phosphate (ALP)", "setting": "NAFLD patients [1]", "result": "reduced"},
      {"measurement": "hepatic fat content as assessed by CAP", "setting": "NAFLD patients [2]", "result": "reduced"},
      {"measurement": "localization and abundance of EGFR", "setting": "[3]", "result": "did not change the localization and abundance"},
      {"measurement": "Alpha-SMA gene expression", "setting": "Alpha-SMA; relative mRNA normalized to 36B4, 50 mg/kg PO QD Day 0-13", "result": "3.74 ± 0.81"},
      {"measurement": "Alpha-SMA gene expression", "setting": "Alpha-SMA; relative mRNA normalized to 36B4, 500 mg/kg PO QD Day 0-13", "result": "5.54 ± 1.54"},
      {"measurement": "TGF-β-stimulated intracellular signaling (SMAD2/3 phosphorylation)", "setting": "[4]", "result": "inhibits TGF-β-stimulated intracellular signaling; also recorded: inhibited TGF-β induced intracellular signaling (SMAD2/3)"}
    ]}
  ]
}
